We go through 2 molecules from article PMC6591272, “Midostaurin Reverses ABCB1-Mediated Multidrug Resistance, an in vitro Study” (Frontiers in Oncology, 2019).

Structures are written as SMILES.

Data set [1] concerns the target T1, ABCB1 transporter (P-gp/MDR1) (Homo sapiens, UniProt P08183). Briefly: vanadate-sensitive ATPase assay in ABCB1-overexpressing membranes; supported by [3H]-paclitaxel efflux inhibition in KB-C2 cells. It counts as biochemical. Further details: cell membranes that overexpressed ABCB1.
Data set [2] concerns the target T1, ABCB1 transporter (P-gp/MDR1).

T1 sequence (P08183 whole entry): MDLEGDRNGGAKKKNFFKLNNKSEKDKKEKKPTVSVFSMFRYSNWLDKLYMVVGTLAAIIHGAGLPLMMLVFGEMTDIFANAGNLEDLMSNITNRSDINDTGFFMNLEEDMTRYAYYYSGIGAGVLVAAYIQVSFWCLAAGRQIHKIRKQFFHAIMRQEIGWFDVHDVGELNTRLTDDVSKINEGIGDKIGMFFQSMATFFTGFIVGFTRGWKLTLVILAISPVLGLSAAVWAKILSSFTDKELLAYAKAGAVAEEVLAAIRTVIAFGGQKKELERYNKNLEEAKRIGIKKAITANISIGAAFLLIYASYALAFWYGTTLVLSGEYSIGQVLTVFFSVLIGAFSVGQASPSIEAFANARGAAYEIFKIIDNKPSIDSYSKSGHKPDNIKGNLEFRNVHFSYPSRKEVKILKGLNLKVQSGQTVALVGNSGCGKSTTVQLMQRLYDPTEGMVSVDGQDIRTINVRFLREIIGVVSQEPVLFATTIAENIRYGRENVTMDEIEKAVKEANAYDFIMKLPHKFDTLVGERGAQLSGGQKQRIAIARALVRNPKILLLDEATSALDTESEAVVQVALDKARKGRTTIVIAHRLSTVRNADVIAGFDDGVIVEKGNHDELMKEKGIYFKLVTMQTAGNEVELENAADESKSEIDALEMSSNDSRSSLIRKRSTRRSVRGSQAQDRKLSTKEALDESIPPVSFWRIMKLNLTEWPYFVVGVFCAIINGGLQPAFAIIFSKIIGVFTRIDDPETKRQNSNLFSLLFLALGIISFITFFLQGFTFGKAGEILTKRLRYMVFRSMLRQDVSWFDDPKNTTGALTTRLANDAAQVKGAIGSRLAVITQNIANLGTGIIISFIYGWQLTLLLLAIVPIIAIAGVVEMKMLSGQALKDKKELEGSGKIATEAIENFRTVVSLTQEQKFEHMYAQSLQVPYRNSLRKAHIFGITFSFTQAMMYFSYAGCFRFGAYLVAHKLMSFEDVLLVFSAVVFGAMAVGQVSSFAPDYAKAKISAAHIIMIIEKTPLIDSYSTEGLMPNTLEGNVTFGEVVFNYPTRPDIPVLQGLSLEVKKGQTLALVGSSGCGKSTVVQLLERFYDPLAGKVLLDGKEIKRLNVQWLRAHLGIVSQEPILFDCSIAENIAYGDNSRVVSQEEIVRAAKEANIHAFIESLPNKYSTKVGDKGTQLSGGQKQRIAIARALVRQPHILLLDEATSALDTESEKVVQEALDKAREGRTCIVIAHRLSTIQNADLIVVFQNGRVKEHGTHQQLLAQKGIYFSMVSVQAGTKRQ

As for `CO[C@@H]1[C@H](N(C)C(=O)c2ccccc2)C[C@H]2O[C@]1(C)n1c3ccccc3c3c4c(c5c6ccccc6n2c5c31)C(=O)NC4` [midostaurin], the IC50 in data set [1] was 3.1 µM.
On to `CC(=O)O[C@H]1C(=O)[C@@]2(C)[C@H]([C@H](OC(=O)c3ccccc3)[C@]3(O)C[C@H](OC(=O)[C@H](O)[C@@H](NC(=O)c4ccccc4)c4ccccc4)C(C)=C1C3(C)C)[C@]1(OC(C)=O)CO[C@@H]1C[C@@H]2O` [paclitaxel], for which the “[3H]-paclitaxel accumulation and efflux in KB-C2 versus parental KB-3-1 cells” value in data set [2] was “midostaurin significantly decreased the efflux level of [^3H]-paclitaxel in ABCB1-overexpressing KB-C2 cells in a dose-dependent manner”.

As a reminder, the IC50 is the concentration needed to halve the response being measured. A lower IC50 goes with inhibition by little substance.
